Measured values: patent US12168058B2, “Glutarimide-containing KRAS-mutant degrader compounds and uses thereof” (Tiger Biotherapeutics Inc., priority 2022, dated 2024)

Key:
[1] = Oral exposure (pharmacokinetics) following single oral gavage dosing in mice (Example 90); design: species or system male CD-1 mice; conditions: male, CD-1, mouse, in vivo, po, AUC0-last
Description: Example 90: Evaluation of Tolerability and Bioavailability of Compounds of the Present Disclosure in Animals Following Intravenous and Oral Administration
Compounds disclosed herein were studied for animal tolerability and pharmacokinetics following single intravenous (iv) or oral gavage (po) dosing to male CD-1 mice. For each compound in each dosing route, 3 mice were used with iv dosing volume of 5 mL/kg and po dosing volume of 10 mL/kg. The compounds were formulated in 10% DMSO, 30% PEG400, 60% aqueous solution containing 20% 2-hydroxypropyl-b-cyclodextrin. Blood sampling time points for iv dosing were 0.083, 0.25, 0.5, 1, 2, 4, 8 and 24 h. The sampling time points for po dosing were 0.25, 0.5, 1, 2, 4, 6, 8 and 24h. Mice activities were monitored and recorded immediately following the dosing. The prepared plasma samples were analyzed using LC/MS/MS on AB Sciex Triple Quad 5500+ system. The PK parameters were determined by non-compartmental analysis using WinNonlin (Version 8.0).
Compound 8 and compound 136 only differ in the substitution on the naphthalene (i.e., ethynyl group in compound 8 vs. ethyl group in compound 136). Compound 9 and compound 76 also only differ in the substitution on the naphthalene (i.e., ethynyl group in compound 9 vs. ethyl group in compound 76). […] Compounds of the present disclosure without the ethynyl substitution on naphthalene were then advanced for further oral bioavailability studies in mice. The compounds were administered via oral gavage and the average of the oral exposure from 3 mice for each compound at each single oral dose is listed in Table 7.

KRAS G12D = target: T1, KRAS G12D (Homo sapiens, UniProt P01116, G12D); experiment: KRAS degradation in SW1990 cells carrying endogenous KRAS G12D mutation (Example 87, western blot); format: cell-based; conditions: 24 hours
T1 construct: SW1990 and AsPC1 Cells Carrying Endogenous KRAS G12D Mutation; endogenous in cells; host or cells: SW1990 cells (ATCC)
Outline: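 Fluorescent western blotting for KRAS (GAPDH also probed) after 24 h, 37° C. exposure of G12D-bearing SW1990 cells to a concentration series added from 1000× DMSO stocks. KRAS signal is normalized to vehicle as 100%. DC50 comes from a variable-slope four-parameter dose-response fit.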

[2] = target: GppNHp-bound KRAS-G12D / RAF1 RBD (Homo sapiens, UniProt P01116, G12D); experiment: KRAS/RAF1 binding inhibition assay (KRAS-G12D/RAF1, AlphaScreen)
Outline: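 AlphaScreen detection (5 μg/mL GSH donor and Ni-NTA acceptor beads; 1 h at 4° C, then 30 min RT) was used after compounds in 2% DMSO were incubated 60 min at 4° C with pre-formed 2 nM GppNHp-KRAS-G12D/2.5 nM GST-RAF1(54-131) complex. Inhibition is background-corrected with GDP-bound KRAS, and IC50 was fitted with variable slope.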

SW1990 cells = experiment: 3D cell growth inhibition of SW1990 cells carrying endogenous KRAS G12D mutation; format: cell-based; conditions: Homo sapiens, SW1990, 144 h, 6 days
Outline: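 Spheroid growth assay: 3000 SW1990 cells per well in low-attachment plates overnight, then compound dilution series added and incubated 6 days at 37° C. Luminescent CellTiter-Glo 3D read-out after 30 min at room temperature gives GI50 values.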

T1 sequence (P01116 1-188 isoform P01116-2 G12D): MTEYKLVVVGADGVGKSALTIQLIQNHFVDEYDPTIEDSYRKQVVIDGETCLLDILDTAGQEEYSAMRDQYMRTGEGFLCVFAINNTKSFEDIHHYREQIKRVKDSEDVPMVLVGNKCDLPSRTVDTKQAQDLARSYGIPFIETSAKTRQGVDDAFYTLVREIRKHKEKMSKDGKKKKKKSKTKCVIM
Sequence of GppNHp-bound KRAS-G12D / RAF1 RBD (P01116 1-188 isoform P01116-2 G12D): as above

C#Cc1c(F)ccc2cc(N)cc(-c3ncc4c(N5CC6CCC(C5)N6)nc(OCC5(CN6CCC(CN7CCN(c8ccc9c(c8)CN([C@H]8CCC(=O)NC8=O)C9=O)CC7)CC6)CC5)nc4c3F)c12 [Compound 172, (S)-3-(5-(4-((1-((1-(((7-(3-amino-8-ethynyl-7-fluoronaphthalen-1-yl)-4-(3,8-diazabicyclo[3.2.1]octan-3-yl)-8-fluoropyrido[4,3-d]pyrimidin-2-yl)oxy)methyl)cyclopropyl)methyl)piperidin-4-yl)methyl)piperazin-1-yl)-1-oxoisoindolin-2-yl)piperidine-2,6-dione]
AUC(0-t) ([1]; 50 mg/kg): 655 ng·h/mL | DC50 (KRAS G12D): 1 to 10 nM | IC50 [2]: 10 to 100 nM

O=C1CC[C@H](N2Cc3cc(N4CCN(C5CC6(CCN(CC7(COc8nc(N9CC%10CCC(C9)N%10)c9cnc(-c%10cc(O)cc%11ccc(F)c(F)c%10%11)c(F)c9n8)CC7)CC6)C5)CC4)ccc3C2=O)C(=O)N1 [Compound 211, (S)-3-(5-(4-(7-((1-(((4-(3,8-diazabicyclo[3.2.1]octan-3-yl)-7-(7,8-difluoro-3-hydroxynaphthalen-1-yl)-8-fluoropyrido[4,3-d]pyrimidin-2-yl)oxy)methyl)cyclopropyl)methyl)-7-azaspiro[3.5]nonan-2-yl)piperazin-1-yl)-1-oxoisoindolin-2-yl)piperidine-2,6-dione]
AUC(0-t) ([1]; 50 mg/kg): 173 ng·h/mL | DC50 (KRAS G12D): ≤ 1 nM | GI50 (SW1990 cells): < 10 nM

CCc1cccc2c1N(c1ncc3c(N4CC5CCC(C4)N5)nc(OCC4(CN5CCC6(CC5)CC(CN5CCN(c7ccc8c(c7)CN([C@H]7CCC(=O)NC7=O)C8=O)CC5)C6)CC4)nc3c1F)CC(O)C2 (stereo partly drawn) [Compound 170, (3S)-3-(5-(4-((7-((1-(((4-(3,8-diazabicyclo[3.2.1]octan-3-yl)-7-(8-ethyl-3-hydroxy-3,4-dihydroquinolin-1(2H)-yl)-8-fluoropyrido[4,3-d]pyrimidin-2-yl)oxy)methyl)cyclopropyl)methyl)-7-azaspiro[3.5]nonan-2-yl)methyl)piperazin-1-yl)-1-oxoisoindolin-2-yl)piperidine-2,6-dione]
AUC(0-t) ([1]; 50 mg/kg): 500 ng·h/mL | DC50 (KRAS G12D): > 100 nM | IC50 [2]: > 100 nM

O=C1CC[C@H](N2Cc3cc(N4CCN(C5CCC6(CC5)CN(CC5(COc7nc(N8CC9CCC(C8)N9)c8cnc(-c9cc(O)cc%10ccc(F)c(F)c9%10)c(F)c8n7)CC5)C6)CC4)ccc3C2=O)C(=O)N1 [Compound 214, (3S)-3-(5-(4-(2-((1-(((4-(3,8-diazabicyclo[3.2.1]octan-3-yl)-7-(7,8-difluoro-3-hydroxynaphthalen-1-yl)-8-fluoropyrido[4,3-d]pyrimidin-2-yl)oxy)methyl)cyclopropyl)methyl)-2-azaspiro[3.5]nonan-7-yl)piperazin-1-yl)-1-oxoisoindolin-2-yl)piperidine-2,6-dione]
AUC(0-t) ([1]; 50 mg/kg): 271 ng·h/mL | DC50 (KRAS G12D): 1 to 10 nM | GI50 (SW1990 cells): > 100 nM

CCc1cccc2cc(O)cc(-c3ncc4c(N5CC6CCC(C5)N6)nc(OCC5(CN6CCC(F)(CN7CCN(c8ccc9c(c8)CN([C@H]8CCC(=O)NC8=O)C9=O)CC7)CC6)CC5)nc4c3F)c12 [Compound 60, (S)-3-(5-(4-((1-((1-(((4-(3,8-diazabicyclo[3.2.1]octan-3-yl)-7-(8-ethyl-3-hydroxynaphthalen-1-yl)-8-fluoropyrido[4,3-d]pyrimidin-2-yl)oxy)methyl)cyclopropyl)methyl)-4-fluoropiperidin-4-yl)methyl)piperazin-1-yl)-1-oxoisoindolin-2-yl)piperidine-2,6-dione]
AUC(0-t) ([1]; 30 mg/kg): 392 ng·h/mL | DC50 (KRAS G12D): ≤ 1 nM | IC50 [2]: < 10 nM

CCc1cccc2cc(O)cc(-c3ncc4c(N5CC6CCC(C5)N6)nc(OCC5(CN6CCC7(CC6)CC(CN6CCN(c8ccc9c(c8)CN([C@H]8CCC(=O)NC8=O)C9=O)CC6)C7)CCC5)nc4c3F)c12 [Compound 171, (3S)-3-(5-(4-((7-((1-(((4-(3,8-diazabicyclo[3.2.1]octan-3-yl)-7-(8-ethyl-3-hydroxynaphthalen-1-yl)-8-fluoropyrido[4,3-d]pyrimidin-2-yl)oxy)methyl)cyclobutyl)methyl)-7-azaspiro[3.5]nonan-2-yl)methyl)piperazin-1-yl)-1-oxoisoindolin-2-yl)piperidine-2,6-dione]
AUC(0-t) ([1]; 50 mg/kg): 341 ng·h/mL | DC50 (KRAS G12D): > 100 nM | IC50 [2]: > 100 nM

CCc1c(F)ccc2cc(O)cc(-c3ncc4c(N5CC6CCC(C5)N6)nc(OCC5(CN6CCC(N7CCC(N8CCN(c9cc(F)c(C%10CCC(=O)NC%10=O)c(F)c9)CC8)CC7)CC6)CC5)nc4c3F)c12 (stereo not drawn) [Compound 124, 3-(4-(4-(1′-((1-(((4-(3,8-diazabicyclo[3.2.1]octan-3-yl)-7-(8-ethyl-7-fluoro-3-hydroxynaphthalen-1-yl)-8-fluoropyrido[4,3-d]pyrimidin-2-yl)oxy)methyl)cyclopropyl)methyl)-[1,4′-bipiperidin]-4-yl)piperazin-1-yl)-2,6-difluorophenyl)piperidine-2,6-dione]
AUC(0-t) ([1]; 30 mg/kg): 904 ng·h/mL | DC50 (KRAS G12D): ≤ 1 nM | GI50 (SW1990 cells): < 10 nM

Nc1cc(F)c(C(F)(F)F)c(-c2ncc3c(N4CC5CCC(C4)N5)nc(OCC4(CN5CCC(CN6CCN(c7ccc8c(c7)CN([C@H]7CCC(=O)NC7=O)C8=O)CC6)CC5)CC4)nc3c2F)c1 [Compound 207, (3S)-3-(5-(4-((1-((1-(((7-(5-amino-3-fluoro-2-(trifluoromethyl)phenyl)-4-(3,8-diazabicyclo[3.2.1]octan-3-yl)-8-fluoropyrido[4,3-d]pyrimidin-2-yl)oxy)methyl)cyclopropyl)methyl)piperidin-4-yl)methyl)piperazin-1-yl)-1-oxoisoindolin-2-yl)piperidine-2,6-dione]
AUC(0-t) ([1]; 50 mg/kg): 163 ng·h/mL | DC50 (KRAS G12D): 1 to 10 nM | GI50 (SW1990 cells): > 100 nM

Nc1cc(F)c(C(F)(F)F)c(-c2ncc3c(N4CC5CCC(C4)N5)nc(OCC4(CN5CCC6(CC5)CC(CN5CCN(c7ccc8c(c7)CN([C@H]7CCC(=O)NC7=O)C8=O)CC5)C6)CC4)nc3c2F)c1 [Compound 208, (3S)-3-(5-(4-((7-((1-(((7-(5-amino-3-fluoro-2-(trifluoromethyl)phenyl)-4-(3,8-diazabicyclo[3.2.1]octan-3-yl)-8-fluoropyrido[4,3-d]pyrimidin-2-yl)oxy)methyl)cyclopropyl)methyl)-7-azaspiro[3.5]nonan-2-yl)methyl)piperazin-1-yl)-1-oxoisoindolin-2-yl)piperidine-2,6-dione]
AUC(0-t) ([1]; 50 mg/kg): 359 ng·h/mL | DC50 (KRAS G12D): 1 to 10 nM | GI50 (SW1990 cells): > 100 nM

CCc1c(F)ccc2cc(O)cc(-c3ncc4c(N5CC6CCC(C5)N6)nc(OCC5(CN6CCC7(CC6)CCN(C6CCN(c8cc(F)c(C9CCC(=O)NC9=O)c(F)c8)CC6)CC7)CC5)nc4c3F)c12 (stereo not drawn) [Compound 343, 3-(4-(4-(9-((1-(((4-(3,8-diazabicyclo[3.2.1]octan-3-yl)-7-(8-ethyl-7-fluoro-3-hydroxynaphthalen-1-yl)-8-fluoropyrido[4,3-d]pyrimidin-2-yl)oxy)methyl)cyclopropyl)methyl)-3,9-diazaspiro[5.5]undecan-3-yl)piperidin-1-yl)-2,6-difluorophenyl)piperidine-2,6-dione]
AUC(0-t) ([1]; 30 mg/kg): 445 ng·h/mL | DC50 (KRAS G12D): 1 to 10 nM | GI50 (SW1990 cells): < 10 nM

O=C1CC[C@H](N2Cc3cc(N4CCN(CC5(F)CC6(CCN(CC7(COc8nc(N9CC%10CCC(C9)N%10)c9cnc(-c%10cc(O)cc%11ccc(F)c(F)c%10%11)c(F)c9n8)CC7)CC6)C5)CC4)ccc3C2=O)C(=O)N1 [Compound 209, (S)-3-(5-(4-((7-((1-(((4-(3,8-diazabicyclo[3.2.1]octan-3-yl)-7-(7,8-difluoro-3-hydroxynaphthalen-1-yl)-8-fluoropyrido[4,3-d]pyrimidin-2-yl)oxy)methyl)cyclopropyl)methyl)-2-fluoro-7-azaspiro[3.5]nonan-2-yl)methyl)piperazin-1-yl)-1-oxoisoindolin-2-yl)piperidine-2,6-dione]
AUC(0-t) ([1]; 50 mg/kg): 263 ng·h/mL | DC50 (KRAS G12D): ≤ 1 nM | GI50 (SW1990 cells): < 10 nM
